In patent US12559496B2, “Imidazopyrimidines as modulators of IL-17” (Janssen Pharmaceutica NV, priority 2020, dated 2026) one finds IC50 data, which are given here for 19 molecules.

Experiment [1] has as its system IL-17A-induced G-CSF production in human normal keratinocytes (NHK). Kind of experiment: NHK Assay: IL-17A-induced G-CSF production in human normal keratinocytes. It counts as cell-based. The settings on record: Homo sapiens, Keratinocyte, 24 h, IL-17A 5 ng/mL, 5% FBS, simple average if tested more than once. The method, boiled down:
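Adult normal human keratinocytes treated 24 h at 37 °C with IL-17A (5 ng/mL final) pre-incubated 1 h at rt with titrated compound; 0.2% DMSO, 5% FBS. G-CSF in supernatant measured by HTRF against a standard curve to give IC50; viability checked by CellTiter-Glo.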

For experiment [2], the target named is IL-17A(FLAG-Tagged): IL-17RA(His-Tagged) (Homo sapiens, UniProt Q16552, K93Q). Kind of experiment: IL-17A(FLAG-Tagged): IL-17RA(His-Tagged) Binding Disruption Eu-HTRF Assay. To be noted: disruption of IL-17A/IL-17RA binding; simple average if tested more than once. The method, boiled down:
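Compound (22-point 2-fold series) was preincubated 1 h at rt with FLAG-IL-17A, then His-IL-17RA, Eu-anti-FLAG and D2-anti-His were added in PBS/0.01% Triton X-100 with 200 mM KF for 2 h at rt. The ratio of 665 and 620 nm intensities versus concentration was fitted to one-site competition for IC50.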
(In TR-FRET formats the signal depends on donor and acceptor labels being close together.)

Usually IC50 stands for the concentration that gives 50% inhibition. A lower IC50 goes with greater potency in that assay.

Chain of UniProt Q16552 (Q16552 with tags, fused parts or gaps K93Q): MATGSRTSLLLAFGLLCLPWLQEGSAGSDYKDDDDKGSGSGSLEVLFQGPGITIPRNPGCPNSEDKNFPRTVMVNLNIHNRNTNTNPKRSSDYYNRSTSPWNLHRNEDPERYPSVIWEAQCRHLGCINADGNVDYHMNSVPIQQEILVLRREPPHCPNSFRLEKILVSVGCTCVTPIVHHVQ

Consider `Cc1nonc1C(=O)N[C@H](c1cn2ccc([C@H](NC(=O)CCC(F)(F)F)C3CC3)nc2n1)C1CCC(F)(F)CC1` [Example 23, N—((S)-(7-((R)-Cyclopropyl(4,4,4-trifluorobutanamido)methyl)imidazo[1,2-a]pyrimidin-2-yl)(4,4-difluorocyclohexyl)methyl)-4-methyl-1,2,5-oxadiazole-3-carboxamide], for which the IC50 in experiment [1] was determined as 520 nM; in experiment [2], 130 nM.

Regarding `O=C(CC1CC(F)(F)C1)N[C@@H](c1ccn2cc([C@@H](NC(=O)c3conc3C3CC3)C3CCC(F)(F)CC3)nc2n1)C1CC1` [Example 24, 3-Cyclopropyl-N—((S)-(7-((R)-cyclopropyl(2-(3,3-difluorocyclobutyl)acetamido)methyl)imidazo[1,2-a]pyrimidin-2-yl)(4,4-difluorocyclohexyl)methyl)isoxazole-4-carboxamide], the 50% inhibitory concentration (IC50) in experiment [1] and in experiment [2] was 180 nM each time.

In the case of `O=C(CC1CC(F)(F)C1)N[C@@H](c1ccn2cc([C@@H](NC(=O)c3ccnc(CC(F)(F)F)c3)C3CCC(F)(F)CC3)nc2n1)C1CC1` [Example 25, N—((S)-(7-((R)-Cyclopropyl(2-(3,3-difluorocyclobutyl)acetamido)methyl)imidazo[1,2-a]pyrimidin-2-yl)(4,4-difluorocyclohexyl)methyl)-2-(2,2,2-trifluoroethyl)isonicotinamide], the IC50 in experiment [1] was 210 nM; in experiment [2], 310 nM.

For the molecule `O=C(CC1CC(F)(F)C1)N[C@@H](c1ccn2cc([C@@H](NC(=O)c3conc3CCC(F)(F)F)C3CCC(F)(F)CC3)nc2n1)C1CC1` [Example 26, N—((S)-(7-((R)-Cyclopropyl(2-(3,3-difluorocyclobutyl)acetamido)methyl)imidazo[1,2-a]pyrimidin-2-yl)(4,4-difluorocyclohexyl)methyl)-3-(3,3,3-trifluoropropyl)isoxazole-4-carboxamide], the IC50 is 110 nM in experiment [1] and 130 nM in experiment [2].

As to `O=C(CC1CC(F)(F)C1)N[C@H](c1ccn2cc([C@@H](NC(=O)c3conc3C3CC3)C3CCC(F)(F)CC3)nc2n1)C1CC1` [Example 27, 3-Cyclopropyl-N—((S)-(7-((S)-cyclopropyl(2-(3,3-difluorocyclobutyl)acetamido)methyl)imidazo[1,2-a]pyrimidin-2-yl)(4,4-difluorocyclohexyl)methyl)isoxazole-4-carboxamide], the IC50 in experiment [1] is 2600 nM; in experiment [2] it was 3800 nM.

As for `O=C(CC1CC(F)(F)C1)N[C@H](c1ccn2cc([C@@H](NC(=O)c3ccnc(CC(F)(F)F)c3)C3CCC(F)(F)CC3)nc2n1)C1CC1` [Example 28, N—((S)-(7-((S)-Cyclopropyl(2-(3,3-difluorocyclobutyl)acetamido)methyl)imidazo[1,2-a]pyrimidin-2-yl)(4,4-difluorocyclohexyl)methyl)-2-(2,2,2-trifluoroethyl)isonicotinamide], the results for the IC50 in experiment [1] and in experiment [2] were 1200 nM and 5400 nM, respectively.

On to `O=C(CC1CC(F)(F)C1)N[C@H](c1ccn2cc([C@@H](NC(=O)c3conc3CCC(F)(F)F)C3CCC(F)(F)CC3)nc2n1)C1CC1` [Example 29, N—((S)-(7-((S)-Cyclopropyl(2-(3,3-difluorocyclobutyl)acetamido)methyl)imidazo[1,2-a]pyrimidin-2-yl)(4,4-difluorocyclohexyl)methyl)-3-(3,3,3-trifluoropropyl)isoxazole-4-carboxamide], for which the IC50 is 2600 nM in experiment [1] and 2300 nM in experiment [2].

With `O=C(CCC(F)(F)F)N[C@@H](c1ccn2cc([C@@H](NC(=O)c3conc3CCC(F)(F)F)C3CCC(F)(F)CC3)nc2n1)C1CC1` [Example 30, N—((S)-(7-((R)-Cyclopropyl(4,4,4-trifluorobutanamido)methyl)imidazo[1,2-a]pyrimidin-2-yl)(4,4-difluorocyclohexyl)methyl)-3-(3,3,3-trifluoropropyl)isoxazole-4-carboxamide], the IC50 stood at 74 nM in experiment [1] and 110 nM in experiment [2].

Regarding `O=C(CCC(F)(F)F)N[C@H](c1ccn2cc([C@@H](NC(=O)c3cnn(CC4CC4)n3)C3CCC(F)(F)CC3)nc2n1)C1CC1` [Example 31, N—((S)-(7-((S)-Cyclopropyl(4,4,4-trifluorobutanamido)methyl)imidazo[1,2-a]pyrimidin-2-yl)(4,4-difluorocyclohexyl)methyl)-2-(cyclopropylmethyl)-2H-1,2,3-triazole-4-carboxamide], the figures for the concentration for half-maximal inhibition (IC50) in experiment [1] and in experiment [2] were more than 20000 nM and 3000 nM, respectively.

For `O=C(CCC(F)(F)F)N[C@@H](c1ccn2cc([C@@H](NC(=O)c3ncnn3CC3CC3)C3CCC(F)(F)CC3)nc2n1)C1CC1` [Example 32, N—((S)-(7-((R)-Cyclopropyl(4,4,4-trifluorobutanamido)methyl)imidazo[1,2-a]pyrimidin-2-yl)(4,4-difluorocyclohexyl)methyl)-1-(cyclopropylmethyl)-1H-1,2,4-triazole-5-carboxamide], the half-inhibitory concentration (IC50) is 520 nM in experiment [1] and 170 nM in experiment [2].

For `O=C(CCC(F)(F)F)N[C@H](c1ccn2cc([C@@H](NC(=O)c3ncnn3CC3CC3)C3CCC(F)(F)CC3)nc2n1)C1CC1` [Example 33, N—((S)-(7-((S)-Cyclopropyl(4,4,4-trifluorobutanamido)methyl)imidazo[1,2-a]pyrimidin-2-yl)(4,4-difluorocyclohexyl)methyl)-1-(cyclopropylmethyl)-1H-1,2,4-triazole-5-carboxamide], the IC50 was more than 20000 nM in experiment [1] and 8700 nM in experiment [2].

Turning to `O=C(CCC(F)(F)F)N[C@@H](c1ccn2cc([C@@H](NC(=O)c3cnn(CC4CC4)n3)C3CCC(F)(F)CC3)nc2n1)C1CC1` [Example 34, N—((S)-(7-((R)-Cyclopropyl(4,4,4-trifluorobutanamido)methyl)imidazo[1,2-a]pyrimidin-2-yl)(4,4-difluorocyclohexyl)methyl)-2-(cyclopropylmethyl)-2H-1,2,3-triazole-4-carboxamide], the IC50 in experiment [1] is 580 nM; in experiment [2], 240 nM.

Turning to `CC(C)n1nccc1C(=O)N[C@H](c1nc2nc([C@H](NC(=O)CCC(F)(F)F)C3CC3)ccn2c1F)C1CCC(F)(F)CC1` [Example 35, N—((S)-(7-((R)-Cyclopropyl(4,4,4-trifluorobutanamido)methyl)-3-fluoroimidazo[1,2-a]pyrimidin-2-yl)(4,4-difluorocyclohexyl)methyl)-1-isopropyl-1H-pyrazole-5-carboxamide], the IC50 in experiment [1] was 950 nM; in experiment [2], 810 nM.

`O=C(CCC(F)(F)F)N[C@@H](c1ccn2cc([C@@H](NC(=O)c3conc3C3CC3)C3CCC(F)(F)CC3)nc2n1)C1CC1` [Example 36, 3-Cyclopropyl-N—((S)-(7-((R)-cyclopropyl(4,4,4-trifluorobutanamido)methyl)imidazo[1,2-a]pyrimidin-2-yl)(4,4-difluorocyclohexyl)methyl)isoxazole-4-carboxamide]: the figures for the IC50 in experiment [1] and in experiment [2] were 190 nM and 220 nM, respectively.

Turning to `O=C(CCC(F)(F)F)N[C@H](c1ccn2cc([C@@H](NC(=O)c3conc3C3CC3)C3CCC(F)(F)CC3)nc2n1)C1CC1` [Example 37, 3-Cyclopropyl-N—((S)-(7-((S)-cyclopropyl(4,4,4-trifluorobutanamido)methyl)imidazo[1,2-a]pyrimidin-2-yl)(4,4-difluorocyclohexyl)methyl)isoxazole-4-carboxamide], the half-maximal inhibitory concentration (IC50) is more than 20000 nM in experiment [1] and 1400 nM in experiment [2].

`O=C(CCC(F)(F)F)N[C@@H](c1ccn2cc([C@@H](NC(=O)c3ccnc(CC(F)(F)F)c3)C3CCC(F)(F)CC3)nc2n1)C1CC1` [Example 48, N—((S)-(7-((R)-Cyclopropyl(4,4,4-trifluorobutanamido)methyl)imidazo[1,2-a]pyrimidin-2-yl)(4,4-difluorocyclohexyl)methyl)-2-(2,2,2-trifluoroethyl)isonicotinamide]: the half-maximal inhibitory concentration (IC50) in experiment [1] is 170 nM; in experiment [2], 160 nM.

As for `Cc1nonc1C(=O)N[C@H](c1cn2ccc([C@H](NC(=O)CC34CC(F)(C3)C4)C3CC3)nc2n1)C1CCC(F)(F)CC1` [Example 59, N—((S)-(7-((R)-Cyclopropyl(2-(3-fluorobicyclo[1.1.1]pentan-1-yl)acetamido)methyl)imidazo[1,2-a]pyrimidin-2-yl)(4,4-difluorocyclohexyl)methyl)-4-methyl-1,2,5-oxadiazole-3-carboxamide], the IC50 in experiment [1] came to 990 nM; in experiment [2], 390 nM.

Regarding `Cc1nonc1C(=O)N[C@H](c1cn2ccc([C@H](NC(=O)C[C@H](C)C(F)F)C3CC3)nc2n1)C1CCC(F)(F)CC1` [Example 60, N—((S)-(7-((R)-Cyclopropyl((S)-4,4-difluoro-3-methylbutanamido)methyl)imidazo[1,2-a]pyrimidin-2-yl)(4,4-difluorocyclohexyl)methyl)-4-methyl-1,2,5-oxadiazole-3-carboxamide], the values for the IC50 in experiment [1] and in experiment [2] were 760 nM and 380 nM, respectively.

`Cc1nonc1C(=O)N[C@H](c1cn2ccc([C@H](NC(=O)C[C@H]3C[C@H](F)C3)C3CC3)nc2n1)C1CCC(F)(F)CC1` [Example 61, N—((S)-(7-((R)-Cyclopropyl(2-((1r,3S)-3-fluorocyclobutyl)acetamido)methyl)imidazo[1,2-a]pyrimidin-2-yl)(4,4-difluorocyclohexyl)methyl)-4-methyl-1,2,5-oxadiazole-3-carboxamide]: the figures for the IC50 in experiment [1] and in experiment [2] were 2300 nM and 460 nM, respectively.
